We go through one compound from patent US11135223B2, “Compositions and methods for inhibiting Dkk-1” (YALE UNIVERSITY, priority 2016, dated 2021).

In the test the test system is L. major. Kind of test: Leishmania (L.) major infection model. In kind it is in vivo, BALB/c mice. The method, then: FIG. 4, comprising FIG. 4A through FIG. 4H, depicts results of experiments showing functional inhibition of Dkk-1 protects the host from chronic inflammation caused by L. major. FIG. 4A depicts a schematic diagram for Dkk-1 inhibitor treatment (10 μg/kg/time) in six-week-old female BALB/c mice. FIG. 4B depicts analysis of parasite burden in the infected foot from each mouse at day 42. FIG. 4C depicts the lesion size in the infected foot from each mouse at day 42. FIG. 4D depicts the cell count of macrophages in the infected hindfoot of mice two weeks after vehicle (n=5) or Dkk-1 inhibitor treatment (n=5) counted by flow cytometry and compared with infected (untreated) and uninfected BALB/c mice (n=3). FIG. 4E depicts results of draining lymph node cells from each mouse (n=5/group) that were stimulated with sLMAG (soluble leishmania antigen) 2 weeks after infection. FIG. 4F depicts results of draining lymph node cells from each mouse (n=5/group) were stimulated with sLMAG 6 weeks after infection. FIG. 4G depicts the CD4 cell percentage in draining lymph nodes from each group was determined by flow cytometry. FIG. 4H depicts CD4 T cell numbers in draining lymph nodes from each group was determined by flow cytometry. A representative of two independent experiments is shown. Student's t-test and one-way-ANOVA analysis with Dunnet's post-hoc test were performed. **, p<0.005, *, p<0.05.
FIG. 17, comprising FIG. 17A and FIG. 17B, depicts results of experiments showing a Dkk-1 monoclonal antibody treatment protects BALB/c mice from chronic inflammation caused by L. major. FIG. 17A depicts the number lymph node cells were in L. major infected BALB/c mice injected with a Dkk-1 monoclonal antibody or isotype control antibody. BALB/c mice were infected with L. major (2 million parasites/animal) on day 0. Dkk-1 mAb or isotype control antibody (100 μg/injection) was injected intraperitoneally into six-week-old female BALB/c mice on day −1, +1, +3, +5, +7, +9, +11, +14 (n=6). On day 14, mice were sacrificed, and their drained lymph node cells were counted. Student's t-test was performed. *,p<0.05. FIG. 17B depicts the lesion size in BALB/c mice injected with a Dkk-1 monoclonal antibody or isotype control antibody. Six-week-old female BALB/c mice were infected with L.major, and DKK-1 mAb was treated intraperitoneally on day −1, +1, +3, +5, +7, +9, +11, +14, +21 and +28. Lesion size for each mouse was measured on day 12, 22, and 32. Student's t-test was performed. *, p<0.05.
L. major WR309 strain (MHOM/IL/79/LRC-L251) was originally isolated from a human case of cutaneous leishmaniasis in Israel and has been maintained through culture and frequent passages in mice to maintain virulence. BALB/c mice were infected with 2×10^6 late stationary promastigotes isolated from a Percoll gradient. For monitoring 2 week and 6 week experiments, Dkk-1 inhibitor (10 mg/kg) or vehicle (50 μl DMSO) was injected on day −1, +1, +3, +5, +7, +9, +11 and weekly afterwards till harvest. Draining lymph nodes, nondraining lymph nodes, and plasma were collected. For ex vivo analysis, soluble Leishmania major antigen (sLMAg) was employed. Single cell suspension of draining and non-draining lymph node cells was incubated with sLMAg (equivalent to 5×10^6 organisms/ml final) for 96 hr. Supernatants were harvested and analyzed by ELISA assays. For depleting platelets, 80 μg of anti-CD42 mAb (Emfret Analytical) was injected intravenously in 100 μl PBS. Equal amounts of isotype-matched control Ab (eBioscience) was used for control group animals. Tissues from mice were harvested on day 3 post-infection for analysis.
To determine the ability of an anti-Dkk-1 monoclonal antibody (Dkk-1 mAb) to protect BALB/c mice against chronic inflammation caused by L. major, 6-week old BALB/c mice were infected with L.major (2 million parasites/animal) on day 0. A Dkk-1 mAb or isotype control antibody (100 μg/injection) was injected intraperitoneally on day −1, +1, +3, +5, +7, +9, +11, +14 (n=6). […]

Setting [1] is: BALB/c mice, infected foot, 42 days post-infection.
[2] abbreviates: days 14 and 42 post-infection, ex vivo stimulation of draining lymph node cells with sLMAG.

The structures appear in SMILES notation.

For the compound `NCC1CCN(c2nccc(-c3ccc4ccccc4c3)n2)CC1` [WAY-262611, (1-(4-(naphthalen-2-yl)pyrimidin-2-yl)piperidin-4-yl)methanamine], the “reduction of parasite survival” value (BALB/c mice, 10 mg/kg intraperitoneally, 42 days post-infection) was 11.5 fold. Under setting [1], the lesion size entry was “greatly reduced” and the parasite burden entry is “greatly reduced”. For the same compound, for the setting “FIG. 4G”, the “percentage of CD4 T cells in draining lymph nodes (dLN)” value is “did not reduce”. For the same compound, for the setting “FIG. 4H”, the “number of CD4 T cells in the dLN” value is “reduced”. Also, under setting [2], the IL-4 production entry is recorded as “notably reduced” and the IL-10 production result is listed as “notably reduced”. Further, under “infected hindfoot, 14 days after infection”, the “Macrophage accumulation following parasite infection” value is “diminished”.
